Measured values published in patent publication US7842782B2, “Heparanase-derived peptides for vaccination of tumor patients” (Deutsches Krebsforschungszentrum Stiftung Des Öffentlichen …, priority 2003, dated 2010).

Legend:
[1] = tested on: peptide-specific T-cells from the bone marrow (BMTCs); assay: IFN-γ Enzyme-Linked Immuno Assay (ELISpot); format: cell-based, human; details: for patients significantly reacted against peptide: BMTCs of 15 female breast cancer patients, insulin p34 negative control, 10 μg/ml peptide; for reaction of T cells in ELISpot: vs insulin
Protocol: Mononuclear cells (MNC) from periphery blood (PB) and bone marrow (BM) were isolated via Ficoll gradients (Biocoll separating solution, Biochrom AG). MNC were washed two times with RPMI 1640, transferred to uncoated cell culture dishes, and grown for two hours at 37° C., 5% CO2 in x-VIVO-20 media (BioWhittaker, Walkersville, Md.) for adhesion. Adherent cells were cultivated for 7 day in x-VIVO-20 media with the addition of GM-CSF ([…]; Behringwerke, Marburg) and IL-4 (1000 U/ml; Promocell, Heidelberg). Dendritic cells (DCs) were magnetically isolated via anti-CD-3-coated and anti-CD-19-coated magnetic beads (Dynal). Non-adherent cells were cultivated for 7 days in RPMI 1640 supplemented with 8% human AB sera (Sigma), rhuIL-2 (100 U/ml; Chiron, Ratingen) and IL-4 (60 U/ml). T cells (TCs) were purified via anti-CD-56-coated, anti-CD-19-coated and anti-CD-15-coated magnetic beads.
The number of peptide-specific T-cells from the bone marrow (BMTCs) of female patients is determined by the ELISpot method. For this purpose, a 96-well ELISpot plate (Millipore) is coated with anti-human-IFNγ antibodies (ELISpot Kit, Mabtech) over night at 4° C. and then one hour blocked with RPMI 5% AB sera (37° C., 5% CO2). 10^4 DCs, 10^5 TCs and 10 μg/ml peptide are cultivated on the IFN-γ-coated ELISpot plate for 40 hours (37° C., 5% CO2). Supernatants are discarded and the plate is developed via the ELISpot kit (Mabtech). IFN-γ producing cells are counted with Axioplan Mikroskop (Zeiss) by using the KS ELISpot software. For negative controls, HIV or insulin peptides are used. Each group is determined in triplicate. Positive results are measured via the so-called T-test (p<0.05).

CD8-positive T cells = assay: Tetramer staining (HLA-A2/peptide tetramers, flow cytometry); format: cell-based, human; details: 2 examined patients (text summary of Table 4)
Protocol: 10^6 of each BM-MNC and PB-MNC are blocked with 5% endobulin (immunoglobulin G), incubated with tetramers on ice for 45 min and then stained with CD8-FITC (Becton Dickinson). Dead cells are identified by propidium iodide. The number of T-cells which are double positive for CD8 and tetramer are determined by flow cytometry.

Substance	patients significantly reacted against peptide [1]	reaction of T cells in ELISpot ([1]; MaCa patient 503)	reaction of T cells in ELISpot ([1]; MaCa patient 639)	reaction of T cells in ELISpot ([1]; MaCa patient 704)	HLA-A2peptide staining of CD8-positive T cells (CD8-positive T cells)	reaction of T cells in ELISpot ([1]; MaCa patient 579)	reaction of T cells in ELISpot ([1]; MaCa patient 581)	reaction of T cells in ELISpot ([1]; MaCa patient 753)	reaction of T cells in ELISpot ([1]; MaCa patient 790)	reaction of T cells in ELISpot ([1]; MaCa patient 590)	reaction of T cells in ELISpot ([1]; MaCa patient 923)
A L P P P L M L L (ALPPPLMLL) [Hpa p8]	20%	x (x = positive (p value < 0.05) reaction of T cells in ELISpot)	x (x = positive (p value < 0.05) reaction of T cells in ELISpot)	x (x = positive (p value < 0.05) reaction of T cells in ELISpot)	enriched fractions of CD8-positive T cells						
D L I F G L N A L (DLIFGLNAL) [Hpa p183]	40%	x (x = positive (p value < 0.05) reaction of T cells in ELISpot)	x (x = positive (p value < 0.05) reaction of T cells in ELISpot)			x (x = positive (p value < 0.05) reaction of T cells in ELISpot)	x (x = positive (p value < 0.05) reaction of T cells in ELISpot)	x (x = positive (p value < 0.05) reaction of T cells in ELISpot)	x (x = positive (p value < 0.05) reaction of T cells in ELISpot)		
L L L G P L G P L (LLLGPLGPL) [Hpa p16]	33%	x (x = positive (p value < 0.05) reaction of T cells in ELISpot)	x (x = positive (p value < 0.05) reaction of T cells in ELISpot)		enriched fractions of CD8-positive T cells	x (x = positive (p value < 0.05) reaction of T cells in ELISpot)			x (x = positive (p value < 0.05) reaction of T cells in ELISpot)	x (x = positive (p value < 0.05) reaction of T cells in ELISpot)	x (x = positive (p value < 0.05) reaction of T cells in ELISpot)
